Measured values taken from patent publication US4753952A, “2-acyl-3-aminomethyl-1,2,3,4-tetrahydroquinolines” (Dr. Lo. Zambeletti S.p.A., priority 1985, dated 1988).
Structures can show the parent of a compound that is named as a salt. Where two headings read alike, the source gives them in different places.

Experiments:
[1] = test system: Mouse p-phenylquinone writhing; test: Mouse p-phenylquinone writhing test; type: in vivo, mouse (male Charles River); settings: p-phenylquinone 0.02% i.p. 20 min after dosing, animals completely protected in 8 min; for ED50: Mus musculus, sc, read-out: IN VIVO TESTS - ED50, Mouse p-phenylquinone writhing; for IN VIVO TESTS - ED50, Mouse p-phenylquinone writhing: s.c.
Procedure: (§1) Inhibition of contraction in electrically stimulated rabbit vas deferens indicate Kappa receptor agonism.
Writhing test (According to Siegmund et al., Proc. Soc. Exptl. Biol. 95, 729/1957)
Male Charles River mice, average weight 26 g, are randomly distributed into groups of 10 and are dosed subcutaneously with compounds under test, dissolved in isotonic saline (20 ml.Kg^-1). The experiments are carried out in the presence of positive and negative controls. 20 min after the mice are injected intraperitoneally with p-phenylquinone 0.02%, 10 ml.Kg^-1, maintained at 37° C. in a water bath. The mice are placed in a perspex compartmented observation box and observed for a period of 8 min after injection of p-phenylquinone. The dose-response curve is obtained by basing observation on the all or none response.

[2] = target: T1, k (Kappa) opioid receptor (Cavia porcellus, UniProt P41144); test: Radio receptor binding to k sites (tritiated Ethylketocyclazocine); set-up: species or system guinea pig
T1 construct: fresh guinea pig brain homogenate; from tissue; host or cells: guinea pig whole brain without cerebellum, washed membrane homogenate
T1 sequence (P41144 whole entry): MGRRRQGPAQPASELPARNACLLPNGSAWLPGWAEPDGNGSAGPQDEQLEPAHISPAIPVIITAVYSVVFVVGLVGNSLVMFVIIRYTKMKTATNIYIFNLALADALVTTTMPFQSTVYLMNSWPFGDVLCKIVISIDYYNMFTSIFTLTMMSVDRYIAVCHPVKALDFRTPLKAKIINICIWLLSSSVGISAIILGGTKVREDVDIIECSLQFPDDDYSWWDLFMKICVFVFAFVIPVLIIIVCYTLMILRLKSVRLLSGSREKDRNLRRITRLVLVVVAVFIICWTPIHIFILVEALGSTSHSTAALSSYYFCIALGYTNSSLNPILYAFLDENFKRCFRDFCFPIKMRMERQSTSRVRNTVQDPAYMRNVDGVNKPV
Procedure: Radio receptor binding to μ and k sites is performed on fresh guinea pig brain homogenate prepared according to Kosterlitz.
(§2) […] brain without cerebellum is homogenized in 50 mM, Tris-buffer (pH 7.4 at 0° C.) and centrifuged at 49,000×g×10 min. The pellet is then resuspended in the same buffer, incubated at 37° C. for 45 min. and centrifuged again.
(§3) 1.9 ml of the final homogenate (1:100 in Tris-pH 7.4, 0° C.) is used for the binding assay.
The binding of tritiated Ethylketocyclazocine to brain homogenate is measured in the presence of 100 nanomolar D-Ala-D-LeuEnkephalin (DADLE) and 100 nanomolar DAGO, added to saturate the δ and μ opioid receptors respectively.
Final homogenate with solutions of the cold ligand and of the labelled ligand is incubated for 40 min at 25° C., filtered through Whatman GF/C glass filter discs and washed.
The radioactivity bound to the filters is counted by liquid scintillation spectrophotometry.
(§4) A concentration of radioligant near KD is used in the binding assays evaluating our compounds.

μ receptor = target: T2, μ receptor (Cavia porcellus, UniProt A0ACM8Q262); test: Radio receptor binding to μ sites (3H-DAGO); settings: guinea pig brain homogenate without cerebellum, 25° C., 40 min, pH 7.4
T2 construct: 3H-DAGO (DAMGO) displacement
T2 sequence (A0ACM8Q262 1-400): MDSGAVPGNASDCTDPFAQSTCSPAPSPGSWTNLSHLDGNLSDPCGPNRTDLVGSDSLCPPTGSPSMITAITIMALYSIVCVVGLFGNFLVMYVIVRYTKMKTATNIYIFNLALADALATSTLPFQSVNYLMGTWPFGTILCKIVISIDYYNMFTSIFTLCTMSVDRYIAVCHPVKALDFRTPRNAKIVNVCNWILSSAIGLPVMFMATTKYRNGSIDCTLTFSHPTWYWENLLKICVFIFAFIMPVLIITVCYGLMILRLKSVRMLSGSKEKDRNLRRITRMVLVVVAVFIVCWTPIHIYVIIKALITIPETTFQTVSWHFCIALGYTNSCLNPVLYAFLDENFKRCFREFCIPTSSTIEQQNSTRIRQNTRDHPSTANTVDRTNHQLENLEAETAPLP
Procedure: Radio receptor binding to μ and k sites is performed on fresh guinea pig brain homogenate prepared according to Kosterlitz. (1981)
as §2, §3
Binding to μ sites (Magnan J., 1982):
^3 H [D-Ala^2, MePhe^4, Gly-ol^5 ] Enkephalin (^3 H-DAGO), an enkephalin analogue that binds selectively to μ receptor, is added to the biological substrate and incubated at 25° C. for 40 min., filtered through Whatman GF-C and washed with ice-cold Tris-buffer. The filters are then dried, solubilized in Filtercount and the radioactivity monitored. Non specific binding is determined in the presence of 10^-6 M Naloxone.
For the calculation of the kinetic parameters of the binding of labelled and unlabelled ligands, the equilibrium dissociation constant (KD), and the inhibition constant (Ki) and the maximum number of binding sites (B max) are determined from saturation curves and competition experiments (Hill 1910; Scatchard 1949; Cheng and Prusoff 1973; Gillan et al. 1980).
as §4

Mouse tail flick = Mouse tail flick test; type: in vivo, mouse (male Charles River); settings: s.c., 30 min after dosing, mice doubling the initial reaction time; for ED50: Mus musculus, sc, 0.5 h, read-out: IN VIVO TESTS - ED50, Mouse tail flick
Procedure: as §1
Tail-flick test (Modified from the procedure published by D'Amour et al., J. Pharm. Exptl. Ther. 72, 74/1941)
Male Charles River mice, average weight 26 g, are used. Selection is carried out before beginning of experiments: only mice whose reaction time is less than 8 sec are used. They are randomly distributed into groups of 10 and dosed with compounds under test, with positive and negative controls being included.
Compounds under test are administered subcutaneously in isotonic saline in a volume of 20 ml.Kg^-1. 30 min later mice are placed again under heat source (Socrel apparatus) and reaction time is recorded.
Analgesic activity of the test compound is expressed as the percent number of mice doubling the initial time within a group. [formula]

SMILES	ED50 [1]	Ki [2]	Ki (μ receptor)	ED50 (Mouse tail flick)	IN VIVO TESTS - ED50, Mouse p-phenylquinone writhing [1]	Ki ([2]; guinea pig brain homogenate without cerebellum, tritiated Ethylketocyclazocine with 100 nM DADLE and 100 nM DAGO, 25° C., 40 min, read-out: RECEPTOR BINDING - Ki, k)	IN VIVO TESTS - ED50, Mouse tail flick (Mouse tail flick)
CN(C)CC1Cc2ccccc2CN1C(=O)Cc1ccc(Cl)c(Cl)c1 (racemic) [Example 4, (R,S)-2-(3,4-dichlorophenylacetyl)-3-dimethylaminomethyl-1,2,3,4-tetrahydroisoquinoline hydrochloride]	3.76 mg/kg	17.5 nM	1360 nM	7.2 mg/kg			
O=C(Cc1ccc(Cl)c(Cl)c1)N1Cc2ccccc2C[C@H]1CN1CCCC1 [Example 3, (S)-2-(3,4-dichlorophenyl)acetyl-3-(1-pyrrolidinyl)methyl-1,2,3,4-tetrahydroisoquinoline hydrochloride]	1.43 mg/kg	8.03 nM	764 nM	1.58 mg/kg			
CN(C)C[C@@H]1Cc2ccccc2CN1C(=O)Cc1ccc(Cl)c(Cl)c1 [Example 6, (S)-2-(3,4-dichlorophenylacetyl)-3-dimethylaminomethyl-1,2,3,4-tetrahydroisoquinoline hydrochloride]	2.05 mg/kg	11 nM	1080 nM	1.65 mg/kg			
O=C(Cc1ccc(Cl)c(Cl)c1)N1Cc2ccccc2CC1CN1CCCC1 (racemic) [Example 1, (R,S)-2-(3,4-dichlorophenyl)acetyl-3-(1-pyrrolidinyl)methyl-1,2,3,4-tetrahydroisoquinoline hydrochloride]	2.64 mg/kg	9.45 nM	960 nM	3.12 mg/kg			
CN(C)C[C@H]1Cc2ccccc2CN1C(=O)Cc1ccc(Cl)c(Cl)c1 [Example 5, (R)-2-(3,4-dichlorophenyl)acetyl-3-dimethylaminomethyl-1,2,3,4-tetrahydroisoquinoline hydrochloride]			2560 nM		N.E.	637 nM	N.E.
O=C(Cc1ccc(Cl)c(Cl)c1)N1Cc2ccccc2C[C@@H]1CN1CCCC1 [Example 2, (R)-2-(3,4-dichlorophenyl)acetyl-3-(1-pyrrolidinyl)methyl-1-2,3,4-tetrahydroisoquinoline hydrochloride]		> 1 nM	1420 nM		N.E.		N.E.
